Source: patent publication US10562912B2 (C&C Research Laboratories, priority 2013, dated 2020)

Assays:
Assay type in all cases: cell-based
[1] = target: T1, STAT3 (Homo sapiens, UniProt P40763); experiment: STAT3 reporter gene assay (luciferase), LNCaP stable cell line (pSTAT3-TA-luc), IL-6 stimulation
T1 construct: plasmid pSTAT3-TA-luc), which contains a stably operating STAT3 promoter; endogenous in cells
Method in brief: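 Cytotoxicity was run on a duplicate plate with CellTiter-Glo, while the other plate gave luciferase read-outs from lysed LNCaP pSTAT3-TA-luc reporter cells. Cells were treated with graded compound concentrations plus IL-6 (10 ng/mL final) for 24–48 h in 3% DCC-FBS medium. Unstimulated and stimulated wells served as negative and positive controls.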

[2] = tested on: AGS; experiment: Cell growth inhibition assay, stomach cancer cell line AGS; details: Homo sapiens; AGS stomach cancer cell line, 3,000 cells/well
Description: The inhibitory effects of the compounds of the present invention against the growth of cancer cells were evaluated as shown below. The cancer cell lines including stomach cancer cell line (AGS), breast cancer cell lines (MDA-MB-231, MDA-MB-468, and BT-549), prostate cancer cell lines (LNCaP and DU-145), colon cancer cell line (HCT116), ovarian cancer cell line (SW626), liver cancer cell line (Hep3B), kidney cancer cell line (ACHN), lung cancer cell line (NCI-H23) and blood cancer cell lines (HEL92.1.7 and U266) were cultured under the protocol provided by each supplier. A medium supplemented with 10 ng/mL of IL-6 was used for LNCaP, a prostate cancer cell line, when treated with a drug. Each type of cells to be used in experiments were sub-cultured in a 96-well plate by counting the exact number of cells using Tali™ Image-based Cytometer (Life Technologies). In a 96-well plate, AGS, HCT116, and DU-145 were employed with 3,000 cells/well; NCI-H23, SW626, Hep3B, ACHN, BT-549, MDA-MB-231, HEL92.1.7, and U266 were employed with 5,000 cells/well; and LNCaP and MDA-MB-468 were employed with 10,000 cells/well. The cells were treated with the compounds listed in Examples which were diluted in various concentrations. Upon completion of the compounds treatment, AGS, HCT116, SW626, DU145, NCI-H23, Hep3B, ACHN, BT-549, LNCaP, HEL92.1.7, and U266 cells were cultured at 37° C. under 5% CO2 for from 72 to 96 hours, and MDA-MB-231 and MDA-MB-468 cells were cultured at 37° C. in air for from 72 to 96 hours. Subsequently, the cells were observed under microscope and drug precipitation and particular findings were investigated and recorded. And then, the 96-well plate was placed at room temperature for 30 minutes, added with 20 μL/well of CellTiter-Glo solution (Cat No. G7573, Promega) and shaken for 10 minutes, followed by being subjected to the measurement using PHERAstar™ microplate reader (BMG LABTECH) according to the supplier's general luminometer protocol. Wells where only culture liquid added without cell plating were used as a negative control, whereas wells where culture liquid containing 0.1% DMSO instead of the compounds listed in Examples were used as a positive control.

[3] = tested on: LNCaP; experiment: Cell growth inhibition assay, prostate cancer cell line LNCaP (medium with 10 ng/mL IL-6); details: Homo sapiens, medium supplemented with 10 ng/mL of IL-6, 10,000 cells/well

T1 sequence (P40763 whole entry): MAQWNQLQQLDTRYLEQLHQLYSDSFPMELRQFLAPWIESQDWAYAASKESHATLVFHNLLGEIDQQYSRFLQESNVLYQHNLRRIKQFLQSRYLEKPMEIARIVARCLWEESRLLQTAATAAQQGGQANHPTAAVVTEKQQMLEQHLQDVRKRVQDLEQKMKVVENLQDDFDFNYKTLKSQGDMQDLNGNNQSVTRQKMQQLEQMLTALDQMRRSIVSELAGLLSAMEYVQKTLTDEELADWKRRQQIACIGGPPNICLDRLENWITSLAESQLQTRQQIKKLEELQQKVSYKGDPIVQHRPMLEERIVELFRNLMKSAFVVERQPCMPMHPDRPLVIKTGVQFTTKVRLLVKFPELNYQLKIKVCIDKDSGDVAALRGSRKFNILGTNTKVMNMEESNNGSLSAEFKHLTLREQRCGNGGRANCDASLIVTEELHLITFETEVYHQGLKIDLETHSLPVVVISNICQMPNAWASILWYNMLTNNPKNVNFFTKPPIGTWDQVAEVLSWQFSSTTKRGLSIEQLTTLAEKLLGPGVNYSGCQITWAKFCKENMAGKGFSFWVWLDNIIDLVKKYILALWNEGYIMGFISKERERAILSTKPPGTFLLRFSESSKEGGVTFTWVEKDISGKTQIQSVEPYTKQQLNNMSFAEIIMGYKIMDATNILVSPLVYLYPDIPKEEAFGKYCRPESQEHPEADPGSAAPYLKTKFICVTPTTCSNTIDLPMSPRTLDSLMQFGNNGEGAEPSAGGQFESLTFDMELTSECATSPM

| Structure (SMILES) | IC50 [1] | IC50 [2] | IC50 [3] |
| --- | --- | --- | --- |
| O=C(Nc1cccc(-c2ccc(F)cc2C(F)(F)F)c1)C1Cc2ccc([N+](=O)[O-])cc2N1 (stereo not drawn) [Example 229, N-(4′-fluoro-2′-(trifluoromethyl)-[1,1′-biphenyl]-3-yl)-6-nitroindoline-2-carboxamide] | 1.4 µM | 16.1 µM | 5.4 µM |
| O=C(Nc1cccc(-c2ccc(F)cc2C(F)(F)F)c1)c1cc2ccc([N+](=O)[O-])cc2[nH]1 [Example 244, N-(4′-fluoro-2′-(trifluoromethyl)-[1,1′-biphenyl]-3-yl)-6-nitro-1H-indole-2-carboxamide] | > 10 µM | 30.6 µM | > 10 µM |
| CC(C)COc1cc(NC(=O)c2cc3ccc(NS(C)(=O)=O)cc3[nH]2)cc(C(F)(F)c2cccc(C#N)c2)c1 [Example 392, N-(3-((3-cyanophenyl)difluoromethyl)-5-isobutoxyphenyl)-6-(methylsulfonamido)-1H-indole-2-carboxamide] | 1.8 µM | 9 µM | 8.3 µM |
| Nc1ccc2cc(C(=O)Nc3cccc(-c4ccc(F)cc4F)c3)[nH]c2c1 [Example 271, 6-amino-N-(2′,4′-difluoro-[1,1′-biphenyl]-3-yl)-1H-indole-2-carboxamide] | 5.9 µM | 26.1 µM | 8.6 µM |
| CC(C)(C)OC(=O)n1c(C(=O)Nc2cccc(-c3ccccc3C(F)(F)F)c2)cc2ccc([N+](=O)[O-])cc21 [Example 263, tert-butyl 6-nitro-2-((2′-(trifluoromethyl)-[1,1′-biphenyl]-3-yl)carbamoyl)-1H-indole-1-carboxylate] | > 10 µM | > 50 µM | 8 µM |
| O=C(Nc1cccc(-c2ccccc2C(F)(F)F)c1)c1cc2ccc([N+](=O)[O-])cc2n1CCN1CCOCC1 [Example 252, 1-(2-morpholinoethyl)-6-nitro-N-(2′-(trifluoromethyl)-[1,1′-biphenyl]-3-yl)-1H-indole-2-carboxamide] | > 10 µM | 11.4 µM | > 10 µM |
| Cn1c(C(=O)Nc2cccc(-c3ccc(F)cc3F)c2)cc2ccc([N+](=O)[O-])cc21 [Example 247, N-(2′,4′-difluoro-[1,1′-biphenyl]-3-yl)-1-methyl-6-nitro-1H-indole-2-carboxamide] | > 10 µM | > 50 µM | 3.7 µM |
| CN(C)S(=O)(=O)Nc1ccc2cc(C(=O)Nc3cccc(-c4ccccc4C(F)(F)F)c3)[nH]c2c1 [Example 267, 6-((N,N-dimethylsulfamoyl)amino)-N-(2′-(trifluoromethyl)-[1,1′-biphenyl]-3-yl)-1H-indole-2-carboxamide] | 2 µM | 9.2 µM | 3.2 µM |
| O=C(Nc1cccc(-c2ccccc2C(F)(F)F)c1)c1cc2cc([N+](=O)[O-])ccc2[nH]1 [Example 227, 5-nitro-N-(2′-(trifluoromethyl)-[1,1′-biphenyl]-3-yl)-1H-indole-2-carboxamide] | > 10 µM | 30 µM | > 10 µM |
| O=C(Nc1cccc(-c2ccccc2C(F)(F)F)c1)C1Cc2ccc([N+](=O)[O-])cc2N1 (stereo not drawn) [Example 230, 6-nitro-N-(2′-(trifluoromethyl)-[1,1′-biphenyl]-3-yl)indoline-2-carboxamide] | 1.1 µM | 17.6 µM | 2.7 µM |
| Cc1c(C(=O)Nc2cccc(-c3ccccc3C(F)(F)F)c2)n(CCN2CCOCC2)c2ccc([N+](=O)[O-])cc12 [Example 251, 3-methyl-1-(2-morpholinoethyl)-5-nitro-N-(2′-(trifluoromethyl)-[1,1′-biphenyl]-3-yl)-1H-indole-2-carboxamide] | > 10 µM | 26.7 µM | > 10 µM |
| CS(=O)(=O)Nc1ccc2c(c1)NC(C(=O)Nc1cccc(-c3ccc(F)cc3F)c1)C2 (stereo not drawn) [Example 261, N-(2′,4′-difluoro-[1,1′-biphenyl]-3-yl)-6-(methylsulfonamido)indoline-2-carboxamide] | 2.4 µM | 28.4 µM | 2.9 µM |
| Cn1c(C(=O)Nc2cccc(-c3ccccc3C(F)(F)F)c2)cc2ccc([N+](=O)[O-])cc21 [Example 249, 1-methyl-6-nitro-N-(2′-(trifluoromethyl)-[1,1′-biphenyl]-3-yl)-1H-indole-2-carboxamide] | > 10 µM | 8.4 µM | > 10 µM |

The remaining lines, values ahead:

| IC50 [1] | IC50 [2] | IC50 [3] | Structure (SMILES) |
| --- | --- | --- | --- |
| > 10 µM | 43.7 µM | > 10 µM | O=C(Nc1cccc(-c2cccnc2C(F)(F)F)c1)c1cc2ccc([N+](=O)[O-])cc2[nH]1 [Example 292, 6-nitro-N-(3-(2-(trifluoromethyl)pyridin-3-yl)phenyl)-1H-indole-2-carboxamide] |
| 6.3 µM | 22.1 µM | > 10 µM | CS(=O)(=O)Nc1ccc2cc(C(=O)Nc3cccc(S(=O)(=O)c4cccc(C#N)c4)c3)[nH]c2c1 [Example 402, N-(3-((3-cyanophenyl)sulfonyl)phenyl)-6-(methylsulfonamido)-1H-indole-2-carboxamide] |
| 2.4 µM | 14.6 µM | 8.6 µM | CS(=O)(=O)Nc1ccc2cc(C(=O)Nc3cccc(S(=O)(=O)c4cccc(Cl)c4)c3)[nH]c2c1 [Example 405, N-(3-((3-chlorophenyl)sulfonyl)phenyl)-6-(methylsulfonamido)-1H-indole-2-carboxamide] |
| 5.3 µM | > 50 µM | > 10 µM | COC(=O)c1ccc(Cl)c(-c2ccnc(NC(=O)c3cc4ccc(NS(C)(=O)=O)cc4[nH]3)c2)c1 [Example 300, methyl 4-chloro-3-(2-(6-(methylsulfonamido)-1H-indole-2-carboxamido)pyridin-4-yl)benzoate] |
| 2.5 µM | 13.6 µM | 3.3 µM | CS(=O)(=O)Nc1ccc2cc(C(=O)Nc3cccc(-c4ccc([N+](=O)[O-])cc4C(F)(F)F)c3)[nH]c2c1 [Example 285, 6-(methylsulfonamido)-N-(4′-nitro-2′-(trifluoromethyl)-[1,1′-biphenyl]-3-yl)-1H-indole-2-carboxamide] |
| 7.1 µM | 16.6 µM | > 10 µM | COc1ccc(C(F)(F)F)c(-c2cccc(NC(=O)c3cc4ccc(NS(C)(=O)=O)cc4[nH]3)c2)c1 [Example 281, N-(5′-methoxy-2′-(trifluoromethyl)-[1,1′-biphenyl]-3-yl)-6-(methylsulfonamido)-1H-indole-2-carboxamide] |
| > 10 µM | > 50 µM | > 10 µM | COc1ccc(-c2cccc(NC(=O)c3cc4ccc([N+](=O)[O-])cc4[nH]3)c2)c(F)c1 [Example 295, N-(2′-fluoro-4′-methoxy-[1,1′-biphenyl]-3-yl)-6-nitro-1H-indole-2-carboxamide] |
| 8.2 µM | 34.4 µM | > 10 µM | CS(=O)(=O)Nc1ccc2cc(C(=O)Nc3cccc(S(=O)(=O)c4ccccn4)c3)[nH]c2c1 [Example 403, 6-(methylsulfonamido)-N-(3-(pyridin-2-ylsulfonyl)phenyl)-1H-indole-2-carboxamide] |
| 3.6 µM | 35.2 µM | > 10 µM | COc1cc(C#N)cc(S(=O)(=O)c2cccc(NC(=O)c3cc4ccc(NS(C)(=O)=O)cc4[nH]3)c2)c1 [Example 411, N-(3-((3-cyano-5-methoxyphenyl)sulfonyl)phenyl)-6-(methylsulfonamido)-1H-indole-2-carboxamide] |
| 7 µM | 20.9 µM | > 10 µM | CS(=O)(=O)Nc1ccc2cc(C(=O)Nc3cccc(-c4ncccc4C(F)(F)F)c3)[nH]c2c1 [Example 290, 6-(methylsulfonamido)-N-(3-(3-(trifluoromethyl)pyridin-2-yl)phenyl)-1H-indole-2-carboxamide] |
| 1.9 µM | 11.3 µM | 3.1 µM | CS(=O)(=O)Nc1ccc2cc(C(=O)Nc3cccc(-c4ccc(C#N)cc4C(F)(F)F)c3)[nH]c2c1 [Example 284, N-(4′-cyano-2′-(trifluoromethyl)-[1,1′-biphenyl]-3-yl)-6-(methylsulfonamido)-1H-indole-2-carboxamide] |
| 0.5 µM | 18.8 µM | 2.6 µM | CS(=O)(=O)Nc1ccc2[nH]c(C(=O)Nc3cccc(-c4ccc(F)cc4F)c3)cc2c1 [Example 272, N-(2′,4′-difluoro-[1,1′-biphenyl]-3-yl)-5-(methylsulfonamido)-1H-indole-2-carboxamide] |
